Consider six compounds from patent US20100172983A1 (priority 2001, published 2010).

One series relates to intragastric pH. Put plainly: Emax model: esomeprazole AUC0-24 vs percent time intragastric pH>4.0 on Day 9 (Example 11). The series is classed as in vivo, human.
The conditions of series [1]: in vivo; cited from earlier work.
The test system of another series is gastric pH. The settings on record: during the 8-10 hours following naproxen sodium dosing.
Another series relates to gastroduodenal mucosa. The settings on record: twice daily for five days.

`COc1ccc2nc([S@@+]([O-])Cc3ncc(C)c(OC)c3C)[nH]c2c1` [esomeprazole]: the “Emax, maximal effect: % of time with intragastric pH>4.0 over the daily interval at steady state” value in the series on intragastric pH (Day 9) was determined as 90.4%. Further, the “AUC0-24 value required to achieve half (or 50%) of the maximal response (EC50)” value in the series on intragastric pH (Day 9, plasma esomeprazole) is 713 ng·h/mL.
In the case of `CCc1cccc2c3c([nH]c12)C(CC)(CC(=O)O)OCC3` (stereo not drawn) [etodolac], the half-life (in general, the time in which the quantity being followed falls by half) in series [1] is recorded as “about 7 hours”.
Consider `CC(C(=O)O)c1ccc(-c2ccccc2)c(F)c1` (stereo not drawn) [flurbiprofen], for which the half-life result in series [1] is reported as “about 6 hours”.
As to `O=C(c1ccccc1)c1ccc2n1CCC2C(=O)O` (stereo not drawn) [ketorolac], in series [1], the half-life is 8 to 9 h.
As to `Cc1cccc(Nc2ccccc2C(=O)O)c1C` [mefenamic acid], the half-life entry in series [1] is reported as “up to 4 hours”.
Regarding `COc1ccc2cc([C@H](C)C(=O)O)ccc2c1` [naproxen sodium], the “time the pH was greater than 4” value in the series with gastric pH is recorded as 4%. Further, the “patients presenting with gastroduodenal ulcers at the end of the study” value with gastroduodenal mucosa was found to be 33%. Further, in the series on gastroduodenal mucosa (Day 5 endoscopy), the “subjects with Lanza grade 3 or 4 damage” value is 100%.
